The numbers were not newly measured in patent US20020068365A1, “CONTROLLED RELEASE NITRIC OXIDE PRODUCING AGENTS” (priority 1998, published 2002), which cites them from elsewhere.

For data set [1] the following is noted: 30 grams of L-arginine as an infusion.
For data set [2] the following is noted: L-arginine free base.

On to `N=C(N)NCCC[C@H](N)C(=O)O` [L-arginine], for which the “rise of circulating levels of L-arginine compared to baseline levels” value in data set [1] is listed as “up to 100 fold”. The pH range in data set [2] is recorded as 10.5-12.0.
